{
  "source": "paper PMC5218480",
  "about": "(PLoS ONE, 2017)",
  "tested_on": "MV-4-11 cells",
  "test": "Gene expression microarray analysis (Affymetrix PrimeView) and GSEA",
  "type": "cell-based, human",
  "design": "RFU PODN (11730768_x_at) / Fold change /veh PODN (11730768_x_at) / RFU LINC00158 (11744669_a_at) / Fold change /veh LINC00158 (11744669_a_at) / RFU DUSP10 (11751237_a_at) / Fold change /veh DUSP10 (11751237_a_at) / RFU ID3 (11757404_x_at) / Fold change /veh ID3 (11757404_x_at) / RFU PLEKHG5 (11737974_s_at) / Fold change /veh PLEKHG5 (11737974_s_at) / RFU LRRC4B (11730491_at) / Fold change /veh LRRC4B (11730491_at) / RFU GIMAP4 (11747438_a_at) / Fold change /veh GIMAP4 (11747438_a_at) / RFU KRT8 (11758183_x_at) / Fold change /veh KRT8 (11758183_x_at) / RFU CNN1 (11734310_a_at) / Fold change /veh CNN1 (11734310_a_at) / RFU VPS37D (11726825_at) / Fold change /veh VPS37D (11726825_at) / RFU C10orf10 (11716522_x_at) / Fold change /veh C10orf10 (11716522_x_at) / RFU KIR2DL2 /// KIR2DL4 /// KIR2DL5A /// KIR2DL5B /// KIR2DS1 /// KIR2DS2 /// KIR2DS3 /// KIR2DS4 /// KIR3DL3 /// KIR3DL3 /// KIR3DS1 (11738374_at) / Fold change /veh KIR2DL2 /// KIR2DL4 /// KIR2DL5A /// KIR2DL5B /// KIR2DS1 /// KIR2DS2 /// KIR2DS3 /// KIR2DS4 /// KIR3DL3 /// KIR3DL3 /// KIR3DS1 (11738374_at) / RFU C1QL1 (11718748_at) / Fold change /veh C1QL1 (11718748_at) / RFU TMPRSS4 (11747572_a_at) / Fold change /veh TMPRSS4 (11747572_a_at) / RFU HAMP (11756126_x_at) / Fold change /veh HAMP (11756126_x_at) / RFU RNFT2 (11725882_a_at) / Fold change /veh RNFT2 (11725882_a_at) / RFU NR4A2 (11747474_a_at) / Fold change /veh NR4A2 (11747474_a_at) / RFU ABCC12 (11746883_a_at) / Fold change /veh ABCC12 (11746883_a_at) / RFU TMEM136 (11760407_x_at) / Fold change /veh TMEM136 (11760407_x_at) / RFU CLDN22 /// WWC2 (11732394_at) / Fold change /veh CLDN22 /// WWC2 (11732394_at) / RFU HLA-DPB1 (11760878_x_at) / Fold change /veh HLA-DPB1 (11760878_x_at) / RFU SPINT1 (11716480_a_at) / Fold change /veh SPINT1 (11716480_a_at) / RFU GAP43 (11754022_s_at) / Fold change /veh GAP43 (11754022_s_at) / RFU A4GNT (11735810_at) / Fold change /veh A4GNT (11735810_at) / RFU PRB3 (11715151_x_at) / Fold change /veh PRB3 (11715151_x_at) / RFU TUBB4B (11761932_at) / Fold change /veh TUBB4B (11761932_at) / RFU CAPN14 (11732068_a_at) / Fold change /veh CAPN14 (11732068_a_at) / RFU TMCC2 (11721928_a_at) / Fold change /veh TMCC2 (11721928_a_at) / RFU IRGQ (11745062_a_at) / Fold change /veh IRGQ (11745062_a_at) / RFU FAM174B (11720279_a_at) / Fold change /veh FAM174B (11720279_a_at) / RFU TMPRSS4 (11748680_a_at) / Fold change /veh TMPRSS4 (11748680_a_at) / RFU FAM212B (11763350_a_at) / Fold change /veh FAM212B (11763350_a_at) / RFU PLEKHG5 (11743358_a_at) / Fold change /veh PLEKHG5 (11743358_a_at) / RFU ZSCAN30 (11745921_a_at) / Fold change /veh ZSCAN30 (11745921_a_at) / RFU CMKLR1 (11741424_a_at) / Fold change /veh CMKLR1 (11741424_a_at) / RFU LOC101060620 /// MAPK8IP1 (11723275_at) / Fold change /veh LOC101060620 /// MAPK8IP1 (11723275_at) / RFU SPTSSB (11747773_x_at) / Fold change /veh SPTSSB (11747773_x_at) / RFU PRSS12 (11739890_at) / Fold change /veh PRSS12 (11739890_at) / RFU BIN1 (11741810_x_at) / Fold change /veh BIN1 (11741810_x_at) / RFU WNT11 (11732464_a_at) / Fold change /veh WNT11 (11732464_a_at) / RFU C10orf10 (11716521_a_at) / Fold change /veh C10orf10 (11716521_a_at) / RFU C5orf56 (11738089_at) / Fold change /veh C5orf56 (11738089_at) / RFU CYB561 (11721691_x_at) / Fold change /veh CYB561 (11721691_x_at) / RFU ANKRD19P (11752326_a_at) / Fold change /veh ANKRD19P (11752326_a_at) / RFU OR2T12 /// OR2T33 /// OR2T8 (11738714_s_at) / Fold change /veh OR2T12 /// OR2T33 /// OR2T8 (11738714_s_at) / RFU VCAN (11748164_a_at) / Fold change /veh VCAN (11748164_a_at) / RFU JSRP1 (11732532_at) / Fold change /veh JSRP1 (11732532_at) / RFU KRTAP10-11 (11738290_x_at) / Fold change /veh KRTAP10-11 (11738290_x_at) / RFU MYO3A (11730013_a_at) / Fold change /veh MYO3A (11730013_a_at) / RFU EBF3 (11725865_a_at) / Fold change /veh EBF3 (11725865_a_at) / RFU CAMK2N1 (11719241_x_at) / Fold change /veh CAMK2N1 (11719241_x_at) / RFU C5orf56 (11738088_a_at) / Fold change /veh C5orf56 (11738088_a_at) / RFU OLFML3 (11715873_a_at) / Fold change /veh OLFML3 (11715873_a_at) / RFU LOC100653217 /// NTM (11731650_a_at) / Fold change /veh LOC100653217 /// NTM (11731650_a_at) / RFU MAPK11 (11762145_a_at) / Fold change /veh MAPK11 (11762145_a_at) / RFU FIZ1 (11724087_x_at) / Fold change /veh FIZ1 (11724087_x_at) / RFU OASL (11726364_x_at) / Fold change /veh OASL (11726364_x_at) / RFU SOX15 (11748057_x_at) / Fold change /veh SOX15 (11748057_x_at) / RFU CD79A (11719716_a_at) / Fold change /veh CD79A (11719716_a_at) / RFU HIST1H1D (11736915_at) / Fold change /veh HIST1H1D (11736915_at) / RFU CASKIN2 (11723855_a_at) / Fold change /veh CASKIN2 (11723855_a_at) / RFU LOC730098 (11760151_x_at) / Fold change /veh LOC730098 (11760151_x_at) / RFU OR4N2 (11742367_at) / Fold change /veh OR4N2 (11742367_at) / RFU PRRT2 (11749266_a_at) / Fold change /veh PRRT2 (11749266_a_at) / RFU SNX32 (11753110_a_at) / Fold change /veh SNX32 (11753110_a_at) / RFU CDHR5 (11726645_a_at) / Fold change /veh CDHR5 (11726645_a_at) / RFU RCAN1 (11760418_a_at) / Fold change /veh RCAN1 (11760418_a_at) / RFU FAM167A (11723789_a_at) / Fold change /veh FAM167A (11723789_a_at) / RFU FAM26E (11764081_at) / Fold change /veh FAM26E (11764081_at) / RFU ISYNA1 (11749810_s_at) / Fold change /veh ISYNA1 (11749810_s_at) / RFU ACY1 (11761880_at) / Fold change /veh ACY1 (11761880_at) / RFU 11764098_at / Fold change /veh 11764098_at / RFU SAMD14 (11745864_x_at) / Fold change /veh SAMD14 (11745864_x_at) / RFU NPB (11741838_a_at) / Fold change /veh NPB (11741838_a_at) / RFU TMPRSS6 (11731388_a_at) / Fold change /veh TMPRSS6 (11731388_a_at) / RFU KRTAP10-2 (11738614_at) / Fold change /veh KRTAP10-2 (11738614_at) / RFU ARHGAP8 /// PRR5-ARHGAP8 (11727945_x_at) / Fold change /veh ARHGAP8 /// PRR5-ARHGAP8 (11727945_x_at) / RFU KRTAP5-7 /// NADSYN1 (11734609_at) / Fold change /veh KRTAP5-7 /// NADSYN1 (11734609_at) / RFU RASL12 (11751679_a_at) / Fold change /veh RASL12 (11751679_a_at) / RFU CDKN2B (11736163_a_at) / Fold change /veh CDKN2B (11736163_a_at) / RFU PRF1 (11729649_at) / Fold change /veh PRF1 (11729649_at) / RFU, ZNF638 /// ZNF638-IT1 / Fold change vs veh, ZNF638 /// ZNF638-IT1 / RFU, PANK3 / Fold change vs veh, PANK3 / RFU, SH3YL1 / Fold change vs veh, SH3YL1 / RFU, ZEB2 / Fold change vs veh, ZEB2 / RFU, NRIP1 / Fold change vs veh, NRIP1 / RFU, PTTG1IP / Fold change vs veh, PTTG1IP / RFU, CAPN2 / Fold change vs veh, CAPN2 / RFU, MED14 / Fold change vs veh, MED14 / RFU, SNORA58 / Fold change vs veh, SNORA58 / RFU, C1orf63 / Fold change vs veh, C1orf63 / RFU, LRRFIP1 / Fold change vs veh, LRRFIP1 / RFU, NDUFAF7 / Fold change vs veh, NDUFAF7 / RFU, SLC12A2 / Fold change vs veh, SLC12A2 / RFU, IBTK / Fold change vs veh, IBTK / RFU, ESF1 / Fold change vs veh, ESF1 / Fold change vs veh, TMEM50B / RFU, TAOK1 / Fold change vs veh, TAOK1 / RFU, ACBD3 / Fold change vs veh, ACBD3 / RFU, TMA16 / Fold change vs veh, TMA16 / RFU, RWDD3 / Fold change vs veh, RWDD3 / RFU, BCAT1 / Fold change vs veh, BCAT1 / RFU, EDEM3 / Fold change vs veh, EDEM3 / RFU, TMEM33 / Fold change vs veh, TMEM33 / RFU, WDR75 / Fold change vs veh, WDR75 / RFU, AHCTF1 / Fold change vs veh, AHCTF1 / RFU, TFRC / Fold change vs veh, TFRC / RFU, ZDHHC17 / Fold change vs veh, ZDHHC17 / RFU, NOM1 / Fold change vs veh, NOM1 / RFU, ARL8B / Fold change vs veh, ARL8B / RFU, ZBTB11 / Fold change vs veh, ZBTB11 / RFU, TAMM41 / Fold change vs veh, TAMM41 / RFU, KIAA1704 /// LOC100996395 / Fold change vs veh, KIAA1704 /// LOC100996395 / RFU, ING1 / Fold change vs veh, ING1 / RFU, TRMT61B / Fold change vs veh, TRMT61B / RFU, FUBP3 / Fold change vs veh, FUBP3 / RFU, TP53 / Fold change vs veh, TP53 / RFU, TNKS2 / Fold change vs veh, TNKS2 / RFU, ZFP14 / Fold change vs veh, ZFP14 / RFU, ACTR2 / Fold change vs veh, ACTR2 / RFU, PPP3R1 / Fold change vs veh, PPP3R1 / RFU, PIK3R1 / Fold change vs veh, PIK3R1 / RFU, HNRNPA1 / Fold change vs veh, HNRNPA1 / RFU, RNF170 / Fold change vs veh, RNF170 / RFU, ZNF28 / Fold change vs veh, ZNF28 / RFU, RNGTT / Fold change vs veh, RNGTT / RFU, OGT / Fold change vs veh, OGT / RFU, BRD1 / Fold change vs veh, BRD1 / RFU, MARS / Fold change vs veh, MARS / RFU, ZNF655 / Fold change vs veh, ZNF655 / RFU, FAHD1 / Fold change vs veh, FAHD1 / RFU, BDP1 / Fold change vs veh, BDP1 / RFU, LRRCC1 / Fold change vs veh, LRRCC1 / RFU, ARID1A / Fold change vs veh, ARID1A / RFU, ZNF146 / Fold change vs veh, ZNF146 / RFU, ZNF330 / Fold change vs veh, ZNF330 / RFU, GPN3 / Fold change vs veh, GPN3 / RFU, C9orf123 / Fold change vs veh, C9orf123 / RFU, N4BP2L2 / Fold change vs veh, N4BP2L2 / RFU, ARFIP1 / Fold change vs veh, ARFIP1 / RFU, FAM179B / Fold change vs veh, FAM179B / RFU, BCL10 / Fold change vs veh, BCL10 / RFU, UHRF1BP1L / Fold change vs veh, UHRF1BP1L / RFU, BET1 / Fold change vs veh, BET1 / RFU, CNOT2 / Fold change vs veh, CNOT2 / RFU, ZNF268 / Fold change vs veh, ZNF268 / Fold change vs veh, ZNF507 / RFU, DGCR2 / Fold change vs veh, DGCR2 / RFU, WDSUB1 / Fold change vs veh, WDSUB1 / Fold change vs veh, HSP90B1 /// MIR3652 / RFU, ADSS / Fold change vs veh, ADSS / RFU, GK / Fold change vs veh, GK / RFU, ZNF148 / Fold change vs veh, ZNF148 / RFU, TAF9 / Fold change vs veh, TAF9 / RFU, SLC1A5 / Fold change vs veh, SLC1A5 / RFU, SLMO2 / Fold change vs veh, SLMO2 / RFU, ABCC4 / Fold change vs veh, ABCC4 / RFU, LOC101060439 /// RAP1B / Fold change vs veh, LOC101060439 /// RAP1B / RFU, RFX7 / Fold change vs veh, RFX7 / RFU, GTPBP10 / Fold change vs veh, GTPBP10 / RFU, CNEP1R1 / Fold change vs veh, CNEP1R1 / RFU, BIVM-ERCC5 /// ERCC5 / Fold change vs veh, BIVM-ERCC5 /// ERCC5 / RFU, ILF3 / Fold change vs veh, ILF3 / RFU 11762660_at / Fold change /veh 11762660_at / RFU VCAN (11757783_s_at) / Fold change /veh VCAN (11757783_s_at) / RFU DDX43 (11728927_at) / Fold change /veh DDX43 (11728927_at) / RFU KRT8 (11758188_x_at) / Fold change /veh KRT8 (11758188_x_at) / RFU NKD1 (11759106_at) / Fold change /veh NKD1 (11759106_at) / RFU SRD5A1 (11742802_a_at) / Fold change /veh SRD5A1 (11742802_a_at) / RFU TPSAB1 /// TPSB2 (11721975_s_at) / Fold change /veh TPSAB1 /// TPSB2 (11721975_s_at) / RFU GSTM3 (11746129_a_at) / Fold change /veh GSTM3 (11746129_a_at) / RFU IL23R (11737362_x_at) / Fold change /veh IL23R (11737362_x_at) / RFU TMEM51 (11727254_a_at) / Fold change /veh TMEM51 (11727254_a_at) / RFU PIWIL2 (11732686_x_at) / Fold change /veh PIWIL2 (11732686_x_at) / RFU ORM1 (11744905_x_at) / Fold change /veh ORM1 (11744905_x_at) / RFU CCDC152 (11743942_at) / Fold change /veh CCDC152 (11743942_at) / RFU ECM1 (11717891_a_at) / Fold change /veh ECM1 (11717891_a_at) / RFU IL23R (11748794_a_at) / Fold change /veh IL23R (11748794_a_at) / RFU TNFAIP8L3 (11732012_x_at) / Fold change /veh TNFAIP8L3 (11732012_x_at) / RFU MBOAT4 (11741988_at) / Fold change /veh MBOAT4 (11741988_at) / RFU 11764193_at / Fold change /veh 11764193_at / RFU TMEM53 (11763286_at) / Fold change /veh TMEM53 (11763286_at) / RFU MAGEB2 (11727129_at) / Fold change /veh MAGEB2 (11727129_at) / RFU TMEM200A (11744735_a_at) / Fold change /veh TMEM200A (11744735_a_at) / RFU CCDC152 (11751479_a_at) / Fold change /veh CCDC152 (11751479_a_at) / RFU FAM211A (11726209_a_at) / Fold change /veh FAM211A (11726209_a_at) / RFU RGS16 (11746705_a_at) / Fold change /veh RGS16 (11746705_a_at) / RFU VCAN (11755009_s_at) / Fold change /veh VCAN (11755009_s_at) / RFU RHOB (11743442_s_at) / Fold change /veh RHOB (11743442_s_at) / RFU RGS16 (11720943_a_at) / Fold change /veh RGS16 (11720943_a_at) / RFU RGS16 (11720944_at) / Fold change /veh RGS16 (11720944_at) / RFU, VPS4B / Fold change vs veh, VPS4B / RFU, CREB1 / Fold change vs veh, CREB1 / RFU, DNAJC13 / Fold change vs veh, DNAJC13 / RFU, GNAQ / Fold change vs veh, GNAQ / RFU, CDK5R1 / Fold change vs veh, CDK5R1 / RFU, ZRANB3 / Fold change vs veh, ZRANB3 / RFU, CUL4A / Fold change vs veh, CUL4A / RFU, CCNY / Fold change vs veh, CCNY / RFU, UFL1 / Fold change vs veh, UFL1 / RFU, COG3 / Fold change vs veh, COG3 / RFU, DIAPH2 / Fold change vs veh, DIAPH2 / RFU, SKA2 / Fold change vs veh, SKA2 / RFU, AFF3 / Fold change vs veh, AFF3 / RFU, LMF1 / Fold change vs veh, LMF1 / RFU, IPO11 / Fold change vs veh, IPO11 / RFU, DFFB / Fold change vs veh, DFFB / RFU, FOXP1 / Fold change vs veh, FOXP1 / RFU, CARD8 / Fold change vs veh, CARD8 / RFU, STRN3 / Fold change vs veh, STRN3 / RFU, ADK / Fold change vs veh, ADK / RFU, RASSF2 / Fold change vs veh, RASSF2 / RFU, WIPF1 / Fold change vs veh, WIPF1 / RFU, LARP1B / Fold change vs veh, LARP1B / RFU, RASA1 / Fold change vs veh, RASA1 / RFU, RB1 / Fold change vs veh, RB1 / RFU, PPFIA1 / Fold change vs veh, PPFIA1 / RFU, MAT2A / Fold change vs veh, MAT2A / RFU, CCT5 / Fold change vs veh, CCT5 / RFU, WDR92 / Fold change vs veh, WDR92 / RFU, CUX1 / Fold change vs veh, CUX1 / RFU, TTC7A / Fold change vs veh, TTC7A / RFU, TMEM135 / Fold change vs veh, TMEM135 / RFU, DEPTOR / Fold change vs veh, DEPTOR / RFU, CPM / Fold change vs veh, CPM / RFU, DNAJB6 / Fold change vs veh, DNAJB6 / RFU, CACNA2D3 / Fold change vs veh, CACNA2D3 / RFU, DTX4 / Fold change vs veh, DTX4 / RFU, TFCP2 / Fold change vs veh, TFCP2 / RFU, GMCL1 /// GMCL1P1 / Fold change vs veh, GMCL1 /// GMCL1P1 / RFU, AEBP2 / Fold change vs veh, AEBP2 / RFU, SNHG1 /// SNORD22 /// SNORD25 /// SNORD26 /// SNORD27 /// SNORD28 /// SNORD29 /// SNORD31 / Fold change vs veh, SNHG1 /// SNORD22 /// SNORD25 /// SNORD26 /// SNORD27 /// SNORD28 /// SNORD29 /// SNORD31 / Fold change (Aza/veh), C12orf56 (ProbeSet 11735607_a_at) / Fold change (ACY-1035/veh), C12orf56 (ProbeSet 11735607_a_at) / Fold change (Aza/veh), FGFR1OP (ProbeSet 11751329_s_at) / Fold change (ACY-1035/veh), FGFR1OP (ProbeSet 11751329_s_at) / Fold change (Aza/veh), VPS36 (ProbeSet 11739960_a_at) / Fold change (ACY-1035/veh), VPS36 (ProbeSet 11739960_a_at) / RFU SYPL1 (11715823_x_at) / Fold change /veh SYPL1 (11715823_x_at) / RFU IGFBP7 (11715501_s_at) / Fold change /veh IGFBP7 (11715501_s_at) / RFU REEP3 (11722064_at) / Fold change /veh REEP3 (11722064_at) / RFU IGLL1 (11728026_x_at) / Fold change /veh IGLL1 (11728026_x_at): dose or concentration left out as unconfirmed",
  "conditions": "ProbeSet 11762504_a_at; LIST D",
  "data": [
    {"compound": "Nc1ncn([C@@H]2O[C@H](CO)[C@@H](O)[C@H]2O)c(=O)n1", "note": "[azacitidine]", "values": [
      {"measurement": "Fold change vs veh, ZRANB3", "result": 0.82}
    ]}
  ]
}
